Reference: patent publication US12030896B2, “PIKfyve inhibitors” (Mayo Foundation for Medical Education and Research, priority 2018, dated 2024)
Where “and” joins values, the source holds several entries; their conditions need not be identical. Identical values can stand only once. Like-named read-outs stand apart in the source and are kept apart here.

Test: Pharmacokinetic study of Example 3 in mouse (IV, IP)
Type: in vivo, C57 Mouse
Settings: for AUC(0-inf): read-out: AUCINF_pred
Method: Species: C57 Mouse. Dose Route: IV&IP. Formulation Vehicle: IV&IP: 10% DMSO/30% PEG400/60% Saline. Dose Level: IV (5 mg/kg) and IP (30 mg/kg). Dose Volume: IV (5 mL/kg) and IP (10 mL/kg). Formulation concentrations: IV (1 mg/mL) and IP (3 mg/mL). LLOQ: IV (2 ng/mL) and IP (10 ng/mL).

[1] = 5 mg/kg IV, individual animals 101M-103M
[2] = 30 mg/kg IP, individual animals 201M-203M
[3] = C57, mouse, plasma, ip, 30 mg/kg, 30 mg/kg IP, individual animals 201M-203M
[4] = C57, mouse, plasma, ip, 30 mg/kg, 30 mg/kg IP, mean
[5] = C57, mouse, plasma, iv, 5 mg/kg, 5 mg/kg IV, individual animals 101M-103M
[6] = C57, mouse, plasma, iv, 5 mg/kg, 5 mg/kg IV, mean

## Cc1ccc(Nc2nc(N/N=C/c3c[nH]c4ccccc34)cc(N3CCOCC3)n2)cc1 [Example 3, (E)-4-(2-((1H-indol-3-yl)methylene)hydrazinyl)-6-morpholino-N-(p-tolyl)pyrimidin-2-amine]
5 mg/kg IV, 0.08 h, individual animals 101M-103M
  Plasma concentrations: 9197.2 ng/mL and 4387.4 ng/mL and 7116.5 ng/mL
5 mg/kg IV, 0.25 h, individual animals 101M-103M
  Plasma concentrations: 7195.4 ng/mL and 2758.6 ng/mL and 3627.2 ng/mL
5 mg/kg IV, 0.50 h, individual animals 101M-103M
  Plasma concentrations: 1641.4 ng/mL and 2830.9 ng/mL
5 mg/kg IV, 1.00 h, individual animals 101M-103M
  Plasma concentrations: 944.6 ng/mL and 1358.7 ng/mL
5 mg/kg IV, 2.00 h, individual animals 101M-103M
  Plasma concentrations: 355.3 ng/mL and 348.7 ng/mL
5 mg/kg IV, 4.00 h, individual animals 101M-103M
  Plasma concentrations: 71.0 ng/mL and 80.3 ng/mL
5 mg/kg IV, 8.00 h, individual animals 101M-103M
  Plasma concentrations: 35.2 ng/mL and 37.8 ng/mL
5 mg/kg IV, 24.00 h, individual animals 101M-103M, LLOQ 2 ng/mL
  Plasma concentrations: BLQ
[1]
  AUCINF_pred: 3424.1 ng·h/mL and 4892.0 ng·h/mL
  AUClast: 3387.7 ng·h/mL and 4862.4 ng·h/mL
  Cl_pred: 15.2 mL/min/kg and 24.3 mL/min/kg and 17 mL/min/kg
  Cmax: 9197.2 ng/mL and 4387.4 ng/mL and 7116.5 ng/mL
  HL_Lambda_z (T1/2, h): 0.98 h and 0.85 h
  MRTlast: 0.90 h and 0.77 h
  Vz_pred: 1.12 L/kg and 2.06 L/kg and 1.25 L/kg
5 mg/kg IV, mean
  Cl_pred: 18.8 mL/min/kg
  Vz_pred: 1.48 L/kg
30 mg/kg IP, 0.25 h, individual animals 201M-203M
  Plasma concentrations: 1507.7 ng/mL and 971.3 ng/mL
30 mg/kg IP, 0.50 h, individual animals 201M-203M
  Plasma concentrations: 2007.7 ng/mL and 1751.8 ng/mL
30 mg/kg IP, 1.00 h, individual animals 201M-203M
  Plasma concentrations: 3178.8 ng/mL and 2919.1 ng/mL
30 mg/kg IP, 2.00 h, individual animals 201M-203M
  Plasma concentrations: 3158.8 ng/mL and 3638.0 ng/mL
30 mg/kg IP, 4.00 h, individual animals 201M-203M
  Plasma concentrations: 2115.5 ng/mL and 1962.2 ng/mL
30 mg/kg IP, 8.00 h, individual animals 201M-203M
  Plasma concentrations: 1428.1 ng/mL and 1227.0 ng/mL
30 mg/kg IP, 24.00 h, individual animals 201M-203M
  Plasma concentrations: 185.0 ng/mL and 145.1 ng/mL
[2]
  AUCINF_pred: 29976.8 ng·h/mL and 27188.2 ng·h/mL
  AUClast: 28429.1 ng·h/mL and 26046.4 ng·h/mL
  Cl_F_pred: 22 mL/min/kg and 16.7 mL/min/kg and 18.3 mL/min/kg
  Cmax: 3178.8 ng/mL and 3638.0 ng/mL
  F %: 79.64% and 103.54% and 94.86%
  HL_Lambda_z (T1/2, h): 5.85 h and 5.52 h
  MRTlast: 5.45 h and 5.15 h
  Tmax: 2.00 h
  Vz_F_pred: 10.11 L/kg and 8.44 L/kg and 8.78 L/kg
30 mg/kg IP, mean
  Cl_F_pred: 19 mL/min/kg
  Vz_F_pred: 9.11 L/kg
C57, mouse, plasma, intraperitoneal, 30 mg/kg, 30 mg/kg IP, 0.25 h, individual animals 201M-203M, read-out: Plasma concentrations
  concentration at 0.25 h: 1490 ng/mL
C57, mouse, plasma, intraperitoneal, 30 mg/kg, 30 mg/kg IP, 0.25 h, mean, read-out: Plasma concentrations
  concentration at 0.25 h: 1320 ng/mL
C57, mouse, plasma, intraperitoneal, 30 mg/kg, 30 mg/kg IP, 0.50 h, individual animals 201M-203M, read-out: Plasma concentrations
  concentration at 0.5 h: 2270 ng/mL
C57, mouse, plasma, intraperitoneal, 30 mg/kg, 30 mg/kg IP, 0.50 h, mean, read-out: Plasma concentrations
  concentration at 0.5 h: 2010 ng/mL
C57, mouse, plasma, intraperitoneal, 30 mg/kg, 30 mg/kg IP, 1.00 h, individual animals 201M-203M, read-out: Plasma concentrations
  concentration at 1 h: 2990 ng/mL
C57, mouse, plasma, intraperitoneal, 30 mg/kg, 30 mg/kg IP, 1.00 h, mean, read-out: Plasma concentrations
  concentration at 1 h: 3030 ng/mL
C57, mouse, plasma, intraperitoneal, 30 mg/kg, 30 mg/kg IP, 2.00 h, individual animals 201M-203M, read-out: Plasma concentrations
  concentration at 2 h: 2830 ng/mL
C57, mouse, plasma, intraperitoneal, 30 mg/kg, 30 mg/kg IP, 2.00 h, mean, read-out: Plasma concentrations
  concentration at 2 h: 3210 ng/mL
C57, mouse, plasma, intraperitoneal, 30 mg/kg, 30 mg/kg IP, 4.00 h, individual animals 201M-203M, read-out: Plasma concentrations
  concentration at 4 h: 1600 ng/mL
C57, mouse, plasma, intraperitoneal, 30 mg/kg, 30 mg/kg IP, 4.00 h, mean, read-out: Plasma concentrations
  concentration at 4 h: 1890 ng/mL
C57, mouse, plasma, intraperitoneal, 30 mg/kg, 30 mg/kg IP, 8.00 h, individual animals 201M-203M, read-out: Plasma concentrations
  concentration at 8 h: 998 ng/mL
C57, mouse, plasma, intraperitoneal, 30 mg/kg, 30 mg/kg IP, 8.00 h, mean, read-out: Plasma concentrations
  concentration at 8 h: 1220 ng/mL
C57, mouse, plasma, intraperitoneal, 30 mg/kg, 30 mg/kg IP, 24.00 h, individual animals 201M-203M, read-out: Plasma concentrations
  concentration at 24 h: 107 ng/mL
C57, mouse, plasma, intraperitoneal, 30 mg/kg, 30 mg/kg IP, 24.00 h, mean, read-out: Plasma concentrations
  concentration at 24 h: 146 ng/mL
C57, mouse, plasma, intravenous, 5 mg/kg, 5 mg/kg IV, 0.08 h, mean, read-out: Plasma concentrations
  concentration at 0.08 h: 6900 ng/mL
C57, mouse, plasma, intravenous, 5 mg/kg, 5 mg/kg IV, 0.25 h, mean, read-out: Plasma concentrations
  concentration at 0.25 h: 4530 ng/mL
C57, mouse, plasma, intravenous, 5 mg/kg, 5 mg/kg IV, 0.50 h, individual animals 101M-103M, read-out: Plasma concentrations
  concentration at 0.5 h: 2080 ng/mL
C57, mouse, plasma, intravenous, 5 mg/kg, 5 mg/kg IV, 0.50 h, mean, read-out: Plasma concentrations
  concentration at 0.5 h: 2180 ng/mL
C57, mouse, plasma, intravenous, 5 mg/kg, 5 mg/kg IV, 1.00 h, individual animals 101M-103M, read-out: Plasma concentrations
  concentration at 1 h: 1350 ng/mL
C57, mouse, plasma, intravenous, 5 mg/kg, 5 mg/kg IV, 1.00 h, mean, read-out: Plasma concentrations
  concentration at 1 h: 1220 ng/mL
C57, mouse, plasma, intravenous, 5 mg/kg, 5 mg/kg IV, 2.00 h, individual animals 101M-103M, read-out: Plasma concentrations
  concentration at 2 h: 309 ng/mL
C57, mouse, plasma, intravenous, 5 mg/kg, 5 mg/kg IV, 2.00 h, mean, read-out: Plasma concentrations
  concentration at 2 h: 338 ng/mL
C57, mouse, plasma, intravenous, 5 mg/kg, 5 mg/kg IV, 4.00 h, individual animals 101M-103M, read-out: Plasma concentrations
  concentration at 4 h: 59 ng/mL
C57, mouse, plasma, intravenous, 5 mg/kg, 5 mg/kg IV, 4.00 h, mean, read-out: Plasma concentrations
  concentration at 4 h: 70.1 ng/mL
C57, mouse, plasma, intravenous, 5 mg/kg, 5 mg/kg IV, 8.00 h, individual animals 101M-103M, read-out: Plasma concentrations
  concentration at 8 h: 26.5 ng/mL
C57, mouse, plasma, intravenous, 5 mg/kg, 5 mg/kg IV, 8.00 h, mean, read-out: Plasma concentrations
  concentration at 8 h: 33.2 ng/mL
[3]
  AUC(0-t): 21900 ng·h/mL
  MRT last: 4.9 h
  AUC(0-inf): 22700 ng·h/mL
C57, mouse, plasma, ip, 30 mg/kg, 30 mg/kg IP, individual animals 201M-203M, read-out: Cmax
  Cmax: 2990 ng/mL
C57, mouse, plasma, ip, 30 mg/kg, 30 mg/kg IP, individual animals 201M-203M, read-out: HL_Lambda_z (T1/2, h) (converted)
  half-life: 5.29 h
C57, mouse, plasma, ip, 30 mg/kg, 30 mg/kg IP, individual animals 201M-203M, read-out: Tmax
  Tmax: 1 h
[4]
  AUC(0-t): 25400 ng·h/mL
  MRT last: 5.17 h
  bioavailability: 92.7%
  AUC(0-inf): 26600 ng·h/mL
C57, mouse, plasma, ip, 30 mg/kg, 30 mg/kg IP, mean, read-out: Cmax
  Cmax: 3270 ng/mL
C57, mouse, plasma, ip, 30 mg/kg, 30 mg/kg IP, mean, read-out: HL_Lambda_z (T1/2, h) (converted)
  half-life: 5.55 h
C57, mouse, plasma, ip, 30 mg/kg, 30 mg/kg IP, mean, read-out: Tmax
  Tmax: 1.33 h
C57, mouse, plasma, ip, 30 mg/kg, IP injection, single 30 mg/kg dose, read-out: half life (converted)
  half-life: ~5.5 h
[5]
  AUC(0-t): 5480 ng·h/mL
  MRT last: 0.63 h
  AUC(0-inf): 5500 ng·h/mL
C57, mouse, plasma, iv, 5 mg/kg, 5 mg/kg IV, individual animals 101M-103M, read-out: HL_Lambda_z (T1/2, h) (converted)
  half-life: 0.85 h
[6]
  AUC(0-t): 4580 ng·h/mL
  MRT last: 0.76 h
  AUC(0-inf): 4610 ng·h/mL
C57, mouse, plasma, iv, 5 mg/kg, 5 mg/kg IV, mean, read-out: Cmax
  Cmax: 6900 ng/mL
C57, mouse, plasma, iv, 5 mg/kg, 5 mg/kg IV, mean, read-out: HL_Lambda_z (T1/2, h) (converted)
  half-life: 0.89 h
IP injection, single 30 mg/kg dose
  peak concentration: 3268 ng/mL
